Data: patent publication US10532995B2, “Substituted pyrazole compounds as serine protease inhibitors” (VERSEON CORPORATION, priority 2015, dated 2020)
pIC50: −log10 of the molar value. Counter-ions that a name gives are not always drawn.

Each compound was assayed against T1, Human thrombin (Homo sapiens, UniProt P00734) (assay: Thrombin protease activity inhibition, chromogenic substrate S-2238). Details: 3 nM thrombin, 125 μM S-2238, 10 min pre-incubation, RT.
T1 construct: purchased Haematologic Technologies Inc
Format: biochemical
Summary of the method: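 Ten-point, three-fold serial dilutions of compound tested against 3 nM enzyme at RT in Tris buffer (0.05 M, pH 7.4) with 0.015 M NaCl and 0.01% PEG-8000.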

pIC50 | SMILES
< 4.00 | C=CCOC(=O)N1CCC(c2cc(NCc3ccc(Cl)s3)[nH]n2)CC1 [Entry 266, prop-2-en-1-yl 4-(5-[(5-chlorothiophen-2-yl)methyl]amino-1H-pyrazol-3-yl)piperidine-1-carboxylate]
5.00 to 6.00 | CC1(c2cc(NCc3ccc(Cl)s3)n(C(=O)c3ccsc3)n2)CCNCC1 [Entry 180, N-[(5-chlorothiophen-2-yl)methyl]-3-(4-methylpiperidin-4-yl)-1-(thiophene-3-carbonyl)-1H-pyrazol-5-amine]
< 4.00 | CC(C)(C)OC(=O)N1CCCC1(C)c1cc(NCc2ccc(Cl)s2)n(C(=O)c2ccsc2)n1 (stereo not shown) [Entry 276, tert-butyl 2-(5-[(5-chlorothiophen-2-yl)methyl]amino-1-(thiophene-3-carbonyl)-1H-pyrazol-3-yl)-2-methylpyrrolidine-1-carboxylate]
6.00 to 7.00 | O=C(c1ccccc1)n1nc(C2CCNCC2)cc1NCc1ccc(Cl)s1 [Entry 105, 1-benzoyl-N-[(5-chlorothiophen-2-yl)methyl]-3-(piperidin-4-yl)-1H-pyrazol-5-amine hydrochloride]
< 4.00 | Cc1c(C2CCN(C(=O)c3cscn3)CC2)n[nH]c1NCc1ccc(Cl)s1 [Entry 236, N-[(5-chlorothiophen-2-yl)methyl]-4-methyl-3-[1-(1,3-thiazole-4-carbonyl)piperidin-4-yl]-1H-pyrazol-5-amine]
> 7.00 | CC1(c2cc(NCc3ccc(Cl)s3)n(C(=O)c3ccsc3)n2)CCCN1 (stereo not shown) [Entry 177, N-[(5-chlorothiophen-2-yl)methyl]-3-(2-methylpyrrolidin-2-yl)-1-(thiophene-3-carbonyl)-1H-pyrazol-5-amine; formic acid]
> 7.00 | CC(C)(C)OC(=O)N1CCCC(C)(c2cc(NCc3ccc(Cl)s3)n(C(=O)C(C)(C)CO)n2)C1 (stereo not shown) [Entry 282, tert-butyl 3-(5-[(5-chlorothiophen-2-yl)methyl]amino-1-(3-hydroxy-2,2-dimethylpropanoyl)-1H-pyrazol-3-yl)-3-methylpiperidine-1-carboxylate]
> 7.00 | CC(C)(C)OC(=O)N1CCC(C)(c2cc(NCc3ccc(Cl)s3)n(C(=O)C(C)(C)CO)n2)CC1 [Entry 296, tert-butyl 4-(5-[(5-chlorothiophen-2-yl)methyl]amino-1-(3-hydroxy-2,2-dimethylpropanoyl)-1H-pyrazol-3-yl)-4-methylpiperidine-1-carboxylate]
5.00 to 6.00 | C=CCOC(=O)N1CCN(C(=O)N2CCOCC2)CC1c1cc(NCc2ccc(Cl)s2)n(C(=O)C(C)(C)C)n1 (stereo not shown) [Entry 244, prop-2-en-1-yl 2-(5-[(5-chlorothiophen-2-yl)methyl]amino-1-(2,2-dimethylpropanoyl)-1H-pyrazol-3-yl)-4-(morpholine-4-carbonyl)piperazine-1-carboxylate]
5.00 to 6.00 | COc1ccc(C(=O)n2nc(C3CCNCC3)cc2NCc2ccc(Cl)s2)c(OC)c1 [Entry 147, N-[(5-chlorothiophen-2-yl)methyl]-1-(2,4-dimethoxybenzoyl)-3-(piperidin-4-yl)-1H-pyrazol-5-amine]
> 7.00 | CC(C)(C)OC(=O)N1CCC(c2cc(NCc3ccc(Cl)s3)n(C(=O)C(C)(C)C)n2)CC1 [Entry 292, tert-butyl 4-(5-[(5-chlorothiophen-2-yl)methyl]amino-1-(2,2-dimethylpropanoyl)-1H-pyrazol-3-yl)piperidine-1-carboxylate]
6.00 to 7.00 | O=C(c1ccsc1)n1nc(C2CCOCC2)cc1NCc1ccc(Cl)s1 [Entry 181, N-[(5-chlorothiophen-2-yl)methyl]-3-(oxan-4-yl)-1-(thiophene-3-carbonyl)-1H-pyrazol-5-amine]
6.00 to 7.00 | CC1(C(=O)n2nc(C3CCCNC3)cc2NCc2ccc(Cl)s2)CCOCC1 (stereo not shown) [Entry 164, N-[(5-chlorothiophen-2-yl)methyl]-1-(4-methyloxane-4-carbonyl)-3-(piperidin-3-yl)-1H-pyrazol-5-amine]
< 4.00 | CC(C)(C)OC(=O)N1CCCC1c1cc(NCc2ccc(Cl)s2)[nH]n1 (stereo not shown) [Entry 277, tert-butyl 2-(5-[(5-chlorothiophen-2-yl)methyl]amino-1H-pyrazol-3-yl)pyrrolidine-1-carboxylate]
< 4.00 | CC(C)(C)OC(=O)N1CCC(c2cc(NCc3ccc(Cl)s3)[nH]n2)CC1 [Entry 302, tert-butyl 4-(5-[(5-chlorothiophen-2-yl)methyl]amino-1H-pyrazol-3-yl)piperidine-1-carboxylate]
< 4.00 | O=C(C1CCCCC1)n1nc(C2CCNCC2)cc1NCc1ccc(Cl)s1 [Entry 169, N-[(5-chlorothiophen-2-yl)methyl]-1-cyclohexanecarbonyl-3-(piperidin-4-yl)-1H-pyrazol-5-amine hydrochloride]
> 7.00 | C=CCOC(=O)N1CCC(c2nn(C(=O)c3cscn3)c(NCc3ccc(Cl)s3)c2C)CC1 [Entry 270, prop-2-en-1-yl 4-(5-[(5-chlorothiophen-2-yl)methyl]amino-4-methyl-1-(1,3-thiazole-4-carbonyl)-1H-pyrazol-3-yl)piperidine-1-carboxylate]

pIC50 | SMILES
< 4.00 | Clc1ccc(CNc2cc(C3CCN(Cc4ccccc4)CC3)n[nH]2)s1 [Entry 113, 3-(1-benzylpiperidin-4-yl)-N-[(5-chlorothiophen-2-yl)methyl]-1H-pyrazol-5-amine]
6.00 to 7.00 | CN1CCC(C)(C(=O)n2nc(C3CCN(C(=O)N4CCOCC4)CC3)cc2NCc2ccc(Cl)s2)CC1 [Entry 142, N-[(5-chlorothiophen-2-yl)methyl]-1-(1,4-dimethylpiperidine-4-carbonyl)-3-[1-(morpholine-4-carbonyl)piperidin-4-yl]-1H-pyrazol-5-amine; formic acid]
> 7.00 | C=CCOC(=O)N1CCCC1c1cc(NCc2ccc(Cl)s2)n(C(=O)c2cscn2)n1 (stereo not shown) [Entry 243, prop-2-en-1-yl 2-(5-[(5-chlorothiophen-2-yl)methyl]amino-1-(1,3-thiazole-4-carbonyl)-1H-pyrazol-3-yl)pyrrolidine-1-carboxylate]
6.00 to 7.00 | COc1ccccc1C(=O)n1nc(C2CCCN2)cc1NCc1ccc(Cl)s1 (stereo not shown) [Entry 159, N-[(5-chlorothiophen-2-yl)methyl]-1-(2-methoxybenzoyl)-3-(pyrrolidin-2-yl)-1H-pyrazol-5-amine]
5.00 to 6.00 | COc1ccccc1C(=O)n1nc(C2(C)CCCN2C(=O)OC(C)(C)C)cc1NCc1ccc(Cl)s1 (stereo not shown) [Entry 272, tert-butyl 2-(5-[(5-chlorothiophen-2-yl)methyl]amino-1-(2-methoxybenzoyl)-1H-pyrazol-3-yl)-2-methylpyrrolidine-1-carboxylate]
> 7.00 | CC(C)(C)OC(=O)N1CCCC(C)(c2cc(NCc3ccc(Cl)s3)n(C(=O)c3ccsc3)n2)C1 (stereo not shown) [Entry 288, tert-butyl 3-(5-[(5-chlorothiophen-2-yl)methyl]amino-1-(thiophene-3-carbonyl)-1H-pyrazol-3-yl)-3-methylpiperidine-1-carboxylate]
< 4.00 | C=CCOC(=O)N1CCCC1c1cc(NCc2ccc(Cl)s2)[nH]n1 (stereo not shown) [Entry 253, prop-2-en-1-yl 2-(5-[(5-chlorothiophen-2-yl)methyl]amino-1H-pyrazol-3-yl)pyrrolidine-1-carboxylate]
< 4.00 | O=C(CN1CCOCC1)N1CCCC1c1cc(NCc2ccc(Cl)s2)[nH]n1 (stereo not shown) [Entry 93, 1-[2-(5-[(5-chlorothiophen-2-yl)methyl]amino-1H-pyrazol-3-yl)pyrrolidin-1-yl]-2-(morpholin-4-yl)ethan-1-one]
< 4.00 | CS(=O)(=O)N1CCCC(c2cc(NCc3ccc(Cl)s3)[nH]n2)CC1 (stereo not shown) [Entry 171, N-[(5-chlorothiophen-2-yl)methyl]-3-(1-methanesulfonylazepan-4-yl)-1H-pyrazol-5-amine]
6.00 to 7.00 | C=CCOC(=O)N1CCN(C(=O)N2CCOCC2)CC1c1cc(NCc2ccc(Cl)s2)n(C(=O)c2cscn2)n1 (stereo not shown) [Entry 240, prop-2-en-1-yl 2-(5-[(5-chlorothiophen-2-yl)methyl]amino-1-(1,3-thiazole-4-carbonyl)-1H-pyrazol-3-yl)-4-(morpholine-4-carbonyl)piperazine-1-carboxylate]
5.00 to 6.00 | CC(C)(C)OC(=O)N1CCCC1(C)c1cc(NCc2ccc(Cl)s2)n(C(=O)C2(C)CCOCC2)n1 (stereo not shown) [Entry 275, tert-butyl 2-(5-[(5-chlorothiophen-2-yl)methyl]amino-1-(4-methyloxane-4-carbonyl)-1H-pyrazol-3-yl)-2-methylpyrrolidine-1-carboxylate]
5.00 to 6.00 | COc1ccccc1C(=O)n1nc(C2(C)CCNCC2)cc1NCc1ccc(Cl)s1 [Entry 154, N-[(5-chlorothiophen-2-yl)methyl]-1-(2-methoxybenzoyl)-3-(4-methylpiperidin-4-yl)-1H-pyrazol-5-amine]
5.00 to 6.00 | CC1(C(=O)n2nc(C3(C)CCCNC3=O)cc2NCc2ccc(Cl)s2)CCOCC1 (stereo not shown) [Entry 121, 3-(5-[(5-chlorothiophen-2-yl)methyl]amino-1-(4-methyloxane-4-carbonyl)-1H-pyrazol-3-yl)-3-methylpiperidin-2-one]
< 4.00 | Cc1c(C2CCN(C(=O)OC(C)(C)C)CC2)n[nH]c1NCc1ccc(Cl)s1 [Entry 303, tert-butyl 4-(5-[(5-chlorothiophen-2-yl)methyl]amino-4-methyl-1H-pyrazol-3-yl)piperidine-1-carboxylate]
5.00 to 6.00 | O=C(c1cccc2c1OCCO2)n1nc(C2CCNCC2)cc1NCc1ccc(Cl)s1 [Entry 143, N-[(5-chlorothiophen-2-yl)methyl]-1-(2,3-dihydro-1,4-benzodioxine-5-carbonyl)-3-(piperidin-4-yl)-1H-pyrazol-5-amine hydrochloride]
< 4.00 | Clc1ccc(CNc2cc(C3CCN(Cc4ncno4)CC3)n[nH]2)s1 [Entry 192, N-[(5-chlorothiophen-2-yl)methyl]-3-[1-(1,2,4-oxadiazol-5-ylmethyl)piperidin-4-yl]-1H-pyrazol-5-amine]
> 7.00 | C=CCOC(=O)N1CCC(c2cc(NCc3ccc(Cl)s3)n(C(=O)C(C)(C)C)n2)C1 (stereo not shown) [Entry 256, prop-2-en-1-yl 3-(5-[(5-chlorothiophen-2-yl)methyl]amino-1-(2,2-dimethylpropanoyl)-1H-pyrazol-3-yl)pyrrolidine-1-carboxylate]
